This assay relates to DispersinB. Type of assay: biochemical, Aggregatibacter actinomycetemcomitans. Conditions: for % enzymatic activity of DispersinB (Mean): polyol % as in label; for temperature stabilizing effect on DispersinB at elevated temperatures: 42° C., 52° C., and 62° C. The procedure: Samples from each formula was incubated at 3 different temperatures (42° C., 52° C. and 62° C.) for 3 hours. Following a 3 hour incubation, the samples were brought to room temperature for enzymatic activity assay.
Two-tailed paired T-test was performed by to compare each polyol containing treatment with the treatment devoid of polyol. Treatment with probability values (p) less than 5% (0.05) was considered significant.

Read-outs that look alike come from different tables or passages of the source. Marks after values point to notes of the source that are not given here.

Turning to `OC[C@@H](O)[C@@H](O)[C@H](O)[C@@H](O)CO` [sorbitol, (2S,3R,4R,5R)-Hexane-1,2,3,4,5,6-hexol], the “temperature stabilizing effect on DispersinB at elevated temperatures” value is recorded as “exhibited temperature stabilizing effect”. Besides, the “% enzymatic activity of DispersinB (Mean)” value (shortened to “% enzymatic activity”) (4° C., freshly made control without polyol = 100%, listed as Sorbitol 1%) is listed as 112* %. Further, the “% enzymatic activity” value (4° C., freshly made control without polyol = 100%, listed as Sorbitol 2.5%) was 107* %. The “% enzymatic activity” value (4° C., freshly made control without polyol = 100%, listed as Sorbitol 5%) is reported as 105* %. For the same molecule, under “4° C., freshly made control without polyol = 100%, listed as Sorbitol 10%”, the “% enzymatic activity” value is 107* %. Further, the “% enzymatic activity” value (4° C., freshly made control without polyol = 100%, listed as Sorbitol 20%) is 110* %. Besides, the “% enzymatic activity” value (4° C., freshly made control without polyol = 100%, listed as Sorbitol 30%) was 113* %. In addition, the “% enzymatic activity” value (42° C. for 3 hours, control without polyol = 100%, listed as Sorbitol 1%) was 80%. Also, the “% enzymatic activity” value (42° C. for 3 hours, control without polyol = 100%, listed as Sorbitol 2.5%) is 87%. Moreover, the “% enzymatic activity” value (42° C. for 3 hours, control without polyol = 100%, listed as Sorbitol 5%) is recorded as 89* %. In addition, the “% enzymatic activity” value (42° C. for 3 hours, control without polyol = 100%, listed as Sorbitol 10%) was 88* %. Moreover, the “% enzymatic activity” value (42° C. for 3 hours, control without polyol = 100%, listed as Sorbitol 20%) is listed as 88* %. In addition, where the note is “42° C. for 3 hours, control without polyol = 100%, listed as Sorbitol 30%”, the “% enzymatic activity” value is listed as 101* %. The “% enzymatic activity” value (52° C. for 3 hours, control without polyol = 100%, listed as Sorbitol 1%) is on record as 6* %. Further, the “% enzymatic activity” value (52° C. for 3 hours, control without polyol = 100%, listed as Sorbitol 2.5%) is reported as 21* %. Besides, for the setting “52° C. for 3 hours, control without polyol = 100%, listed as Sorbitol 5%”, the “% enzymatic activity” value is 46* %. In addition, the “% enzymatic activity” value (52° C. for 3 hours, control without polyol = 100%, listed as Sorbitol 10%) is on record as 82* %. The “% enzymatic activity” value (52° C. for 3 hours, control without polyol = 100%, listed as Sorbitol 20%) is on record as 94* %. Moreover, for the setting “52° C. for 3 hours, control without polyol = 100%, listed as Sorbitol 30%”, the “% enzymatic activity” value is listed as 97* %. Under “62° C. for 3 hours, control without polyol = 100%, listed as Sorbitol 5%”, the “% enzymatic activity” value is on record as 1* %. In addition, the “% enzymatic activity” value (62° C. for 3 hours, control without polyol = 100%, listed as Sorbitol 10%) is 3* %. Also, the “% enzymatic activity” value (62° C. for 3 hours, control without polyol = 100%, listed as Sorbitol 20%) is 4* %. Besides, the “% enzymatic activity” value (62° C. for 3 hours, control without polyol = 100%, listed as Sorbitol 30%) is listed as 46* %.

Take `OC[C@@H](O)[C@@H](O)[C@H](O)[C@H](O)CO[C@H]1O[C@H](CO)[C@@H](O)[C@H](O)[C@H]1O` [Isomalt, (2R,3R,4R,5R)-6-[[(2S,3R,4S,5S,6R)-3,4,5-Trihydroxy-6-(hydroxymethyl)-2-tetrahydropyranyl]oxy]hexane-1,2,3,4,5-pentol]: the “% enzymatic activity” value (4° C., freshly made control without polyol = 100%, listed as 1% Isomalt) stood at 105%; the “% enzymatic activity” value (4° C., freshly made control without polyol = 100%, listed as 2.5% Isomalt) was 105%; the “% enzymatic activity” value (4° C., freshly made control without polyol = 100%, listed as 3% Isomalt) worked out at 106%; the “% enzymatic activity” value (4° C., freshly made control without polyol = 100%, listed as 5% Isomalt) worked out at 107%; the “% enzymatic activity” value (4° C., freshly made control without polyol = 100%, listed as 10% Isomalt) came to 106%; the “% enzymatic activity” value (4° C., freshly made control without polyol = 100%, listed as 15% Isomalt) worked out at 101%. Further, the “% enzymatic activity” value is, setting by setting: (4° C., freshly made control without polyol = 100%, listed as 20% Isomalt) 102%; (42° C. for 3 hours, control without polyol = 100%, listed as 1% Isomalt) 102* %; (42° C. for 3 hours, control without polyol = 100%, listed as 2.5% Isomalt) 100* %; (42° C. for 3 hours, control without polyol = 100%, listed as 3% Isomalt) 100* %; (42° C. for 3 hours, control without polyol = 100%, listed as 5% Isomalt) 99* %; (42° C. for 3 hours, control without polyol = 100%, listed as 10% Isomalt) 107* %. In addition, the “% enzymatic activity” value is on record as 106* % (42° C. for 3 hours, control without polyol = 100%, listed as 15% Isomalt); 107* % (42° C. for 3 hours, control without polyol = 100%, listed as 20% Isomalt); 2% (52° C. for 3 hours, control without polyol = 100%, listed as 1% Isomalt); 3% (52° C. for 3 hours, control without polyol = 100%, listed as 2.5% Isomalt); 4* % (52° C. for 3 hours, control without polyol = 100%, listed as 3% Isomalt); 11* % (52° C. for 3 hours, control without polyol = 100%, listed as 5% Isomalt). In addition, the “% enzymatic activity” value (52° C. for 3 hours, control without polyol = 100%, listed as 10% Isomalt) is recorded as 37* %; the “% enzymatic activity” value (52° C. for 3 hours, control without polyol = 100%, listed as 15% Isomalt) was 82* %; the “% enzymatic activity” value (52° C. for 3 hours, control without polyol = 100%, listed as 20% Isomalt) is recorded as 102* %; the “% enzymatic activity” value (62° C. for 3 hours, control without polyol = 100%, listed as 1% Isomalt) stood at 0%; the “% enzymatic activity” value (62° C. for 3 hours, control without polyol = 100%, listed as 2.5% Isomalt) was determined as 0%; the “% enzymatic activity” value (62° C. for 3 hours, control without polyol = 100%, listed as 3% Isomalt) is on record as 0%. In addition, the “% enzymatic activity” value runs as follows: (62° C. for 3 hours, control without polyol = 100%, listed as 5% Isomalt) 0%; (62° C. for 3 hours, control without polyol = 100%, listed as 10% Isomalt) 0%; (62° C. for 3 hours, control without polyol = 100%, listed as 15% Isomalt) 12* %; (62° C. for 3 hours, control without polyol = 100%, listed as 20% Isomalt) 6* %.

On to Propylene glycol, for which the “temperature stabilizing effect on DispersinB at elevated temperatures” value is given as “did not exhibit temperature stabilizing effects”. Besides, the “% enzymatic activity” value (4° C., freshly made control without polyol = 100%, listed as Prop. Glycol 2.5%) is given as 119* %. The “% enzymatic activity” value (4° C., freshly made control without polyol = 100%, listed as Prop. Glycol 5%) is reported as 114* %. Besides, the “% enzymatic activity” value (4° C., freshly made control without polyol = 100%, listed as Prop. Glycol 10%) was 117* %. Also, where the note is “4° C., freshly made control without polyol = 100%, listed as Prop. Glycol 20%”, the “% enzymatic activity” value was 124* %. Further, the “% enzymatic activity” value (4° C., freshly made control without polyol = 100%, listed as Prop. Glycol 30%) stood at 106%. In addition, the “% enzymatic activity” value (42° C. for 3 hours, control without polyol = 100%, listed as Prop. Glycol 2.5%) is recorded as 109* %. Further, for the setting “42° C. for 3 hours, control without polyol = 100%, listed as Prop. Glycol 5%”, the “% enzymatic activity” value was 93* %. In addition, the “% enzymatic activity” value (42° C. for 3 hours, control without polyol = 100%, listed as Prop. Glycol 10%) was 95* %. For the same molecule, where the note is “42° C. for 3 hours, control without polyol = 100%, listed as Prop. Glycol 20%”, the “% enzymatic activity” value is 46* %.
